According to ChEMBL document CHEMBL4732119, “Design, synthesis and pharmacological evaluation of bicyclic and tetracyclic pyridopyrimidinone analogues as new KRAS inhibitors” (Eur J Med Chem, 2021):

Columns and labels:
A549 [1] = experiment: Antiproliferative activity against human A549 cells harboring KRAS G12S mutant assessed as growth inhibition at 1 uM measured after 72 hrs by SRB assay relative to control; format: functional; settings: Homo sapiens, A549, read-out: GI
MIA PaCa-2 [2] = experiment: Antiproliferative activity against human MIA PaCa-2 cells harboring KRAS G12C mutant assessed as growth inhibition at 10 uM measured after 72 hrs by CCK8 assay relative to control; format: functional; settings: Homo sapiens, MIA PaCa-2, read-out: GI
A549 [3] = experiment: Antiproliferative activity against human A549 cells harboring KRAS G12S mutant assessed as growth inhibition at 0.1 uM measured after 72 hrs by SRB assay relative to control; format: functional; settings: Homo sapiens, A549, read-out: GI
MIA PaCa-2 [4] = experiment: Antiproliferative activity against human MIA PaCa-2 cells harboring KRAS G12C mutant assessed as growth inhibition at 1 uM measured after 72 hrs by CCK8 assay relative to control; format: functional; settings: Homo sapiens, MIA PaCa-2, read-out: GI
MIA PaCa-2 [5] = experiment: Antiproliferative activity against human MIA PaCa-2 cells harboring KRAS G12C mutant assessed as growth inhibition at 0.1 uM measured after 72 hrs by CCK8 assay relative to control; format: functional; settings: Homo sapiens, MIA PaCa-2, read-out: GI
A549 [6] = experiment: Antiproliferative activity against human A549 cells harboring KRAS G12S mutant assessed as growth inhibition at 10 uM measured after 72 hrs by SRB assay relative to control; format: functional; settings: Homo sapiens, A549, read-out: GI
MIA PaCa-2 [7] = experiment: Antiproliferative activity against human MIA PaCa-2 cells harboring KRAS G12C mutant assessed as growth inhibition measured after 72 hrs by CCK8 assay; format: functional, cell-based
[8] = Inhibition of recombinant human N-terminal polyHis-tagged KRAS isoform 2B G12C mutant (Thr2 to Cys185 residues) expressed in Escherichia coli using GTP as substrate measured after 2 hrs by GTPase-glo assay
GTPase KRas = GTPase KRas (Homo sapiens, UniProt P01116); experiment: Inhibition of recombinant human N-terminal His-tagged KRAS (2 to 185 residues) expressed in baculovirus infected Sf9 insect cells using GTP as substrate measured after 2 hrs by GTPase-glo assay
NCI-H1975 = experiment: Antiproliferative activity against human NCI-H1975 cells harboring wild-type KRAS assessed as growth inhibition measured after 72 hrs by SRB assay; format: functional, cell-based; settings: NCI-H1975, 72 h
NCI-H358 = experiment: Antiproliferative activity against human NCI-H358 cells harboring KRAS G12C mutant assessed as growth inhibition measured after 72 hrs by SRB assay; format: functional, cell-based
A549 [9] = experiment: Antiproliferative activity against human A549 cells harboring KRAS G12S mutant assessed as growth inhibition measured after 72 hrs by SRB assay; format: functional, cell-based; settings: A549, 72 h
[10] = system: GTPase KRas (Homo sapiens), P01116 [G12C]; settings: NCI-H358, dose 10-1000 nM, time 6.0 hrs
[11] = system: GTPase KRas (Homo sapiens), P01116 [G12C]; experiment: Inhibition of KRAS G12C mutant in human NCI-H358 cells assessed as reduction in AKT phosphorylation measured after 6 hrs by Western blot analysis; format: cell-based; settings: dose 10-1000 nM
[12] = system: GTPase KRas (Homo sapiens), P01116 [G12C]; experiment: Inhibition of KRAS G12C mutant in human NCI-H358 cells assessed as reduction in ERK phosphorylation measured after 6 hrs by Western blot analysis; format: cell-based; settings: dose 10-1000 nM

SMILES	inhibition of growth at 1 µM (A549 [1])	inhibition of growth at 10 µM (MIA PaCa-2 [2])	inhibition of growth at 0.1 µM (A549 [3])	inhibition of growth at 1 µM (MIA PaCa-2 [4])	inhibition of growth at 0.1 µM (MIA PaCa-2 [5])	inhibition of growth at 10 µM (A549 [6])	IC50 (MIA PaCa-2 [7]; Homo sapiens, MIA PaCa-2, 72 h)	IC50 [8]	other results
C=CC(=O)N1CCN(c2nc(=O)n(-c3c(C)ccnc3C(C)C)c3cc(-c4c(O)cccc4F)ncc23)[C@@H](C)C1	7.53%	64.2%	9.11%	24.8%	4.05%	52.7%	–	–	–
C=CC(=O)N1CCN(c2nc(=O)n(-c3c(C)ccnc3C(C)C)c3nc4c(cc23)oc2ccc(C)cc24)[C@@H](C)C1	1.74%	57.8%	2.95%	42.7%	40.6%	27.8%	> 10000 nM	–	–
C=CC(=O)N1CCN(c2nc(=O)n(-c3c(C)ccnc3C(C)C)c3c(F)c(-c4c(O)cccc4F)ncc23)[C@@H](C)C1 (stereo in doubt; 26a) [listing 1 of 2 here]	–	–	–	–	–	–	–	1870 nM	IC50 (GTPase KRas): > 10000 nM; IC50 (NCI-H1975): > 10000 nM; IC50 (NCI-H358; nci-h358): 260 nM; IC50 (A549 [9]): > 10000 nM; IC50 (MIA PaCa-2 [7]; mia paca-2): 530 nM
C=CC(=O)N1CCN(c2nc(=O)n(-c3c(C)ccnc3C(C)C)c3c(Cl)c(-c4c(O)cccc4F)ncc23)[C@@H](C)C1	–	–	–	–	–	–	2700 nM	2400 nM	IC50 (GTPase KRas): > 10000 nM; IC50 (NCI-H1975): > 10000 nM; IC50 (NCI-H358; Homo sapiens, NCI-H358, 72 h): 1210 nM; IC50 (A549 [9]): > 10000 nM
C=CC(=O)N1CCN(c2nc(=O)n(-c3c(C(C)C)ncnc3C(C)C)c3c(F)c(-c4c(O)cccc4F)ncc23)[C@@H](C)C1	–	–	–	–	–	–	430 nM	1810 nM	IC50 (GTPase KRas): > 10000 nM; IC50 (NCI-H1975): 8990 nM; IC50 (NCI-H358; Homo sapiens, NCI-H358, 72 h): 260 nM; IC50 (A549 [9]): 3270 nM
C=CC(=O)N1CCN(c2nc(=O)n(-c3c(C)ccnc3C(C)C)c3c(F)c(-c4c(O)cccc4F)ncc23)[C@@H](C)C1 (stereo in doubt; 26ab)	–	–	–	–	–	–	–	3570 nM	IC50 (GTPase KRas; sf9): > 10000 nM; IC50 (NCI-H358; nci-h358): 880 nM; IC50 (MIA PaCa-2 [7]; mia paca-2): 1500 nM
C=CC(=O)N1CCN(c2ncnc3c(F)c(-c4c(O)cccc4F)c(Cl)cc23)CC1	6.3%	62.5%	8.27%	34.9%	21%	31.2%	1060 nM	–	–
CC#CC(=O)N1CCN(c2nc(=O)n(-c3c(C)ccnc3C(C)C)c3cc(-c4c(O)cccc4F)ncc23)[C@@H](C)C1	3.57%	41.8%	3.69%	19.7%	20.2%	56.7%	–	–	–
C=CC(=O)N1CCN(c2nc(=O)n(-c3c(C)ccnc3C(C)C)c3c(F)c(-c4c(O)cccc4F)ncc23)[C@@H](C)C1 (stereo in doubt; 26a) [listing 2 of 2 here]	–	–	–	–	–	–	–	–	inhibition [10]: Dose-dependent effect; inhibition [11]: Dose-dependent effect; inhibition [12]: Dose-dependent effect
C=CC(=O)N1CCN(c2nc(=O)n(-c3c(C)ccnc3C(C)C)c3c(F)c(-c4c(O)cccc4F)ncc23)[C@@H](C)C1 (stereo in doubt; 26aa)	–	–	–	–	–	–	–	1790 nM	IC50 (GTPase KRas; sf9): > 10000 nM; IC50 (NCI-H358; nci-h358): 300 nM; IC50 (MIA PaCa-2 [7]; mia paca-2): 600 nM
C=CC(=O)N1CCN(c2nc(=O)n(-c3c(C)ccnc3C(C)C)c3nc4c(cc23)oc2cc(F)c(F)cc24)[C@@H](C)C1	7.03%	75.2%	-5.33%	6.35%	32.3%	21.1%	7970 nM	–	–
